Results from patent publication US20240350481A1, “USE OF N-MYRISTOYL TRANSFERASE (NMT) INHIBITORS IN THE TREATMENT OF CANCER, AUTOIMMUNE DISORDERS, AND INFLAMMATORY DISORDERS” (PACYLEX PHARMACEUTICALS INC., priority 2020, published 2024).

Columns and labels:
[1] = test system: peripheral blood mononuclear cells (PBMCs); test: PBMC viability assay; assay type: cell-based, human; conditions: 96 hr
Experimental: 2 healthy human research volunteers were recruited for PBMC and lymphocytes isolation from a 20 ml blood collection (patient #1: no diagnosis, no treatment; patient #2: no diagnosis, no treatment). Study protocol was approved by the Health Research Ethics Board of Alberta Cancer Committee (Study title: Evaluations of Fatty AcylTransferases (FATs) in fresh blood and blood forming cells; HREBA.CC-17-0624).
Mononuclear cells were isolated from peripheral blood by density gradient centrifugation using Ficoll-Paque (GE Healthcare, PA, USA). Lymphocytes were isolated from whole blood samples using EasySep™ lymphocyte isolation kit (Stemcell Technologies, Vancouver, BC, Canada) as per manufacturer's instructions. PBMC and lymphocytes were cultured in RPMI medium with 10% FBS, 100 U/ml penicillin, 0.1 mg/ml streptomycin. Cells were plated at a concentration of 2×10^6 cells/ml.

[2] = test system: DOHH2 tumors; test: DOHH2 xenograft, tumor growth; assay type: in vivo, mouse
Experimental: DOHH2 xenograft study at Charles River's facility: […] On Day 1 of the study, animals were given a rehydration solution ad libitum in an effort to reduce dehydration during the dosing phase of the study. […] The dose volume was 10 mL/kg.

[3] = test system: hematological cancer cell lines; test: ChemPartner cell line screen, CellTiter Blue; assay type: cell-based; conditions: 72 h; 3 days of treatment; read-out: median IC50
Experimental: (§1) 131 cell lines were seeded in 96-well plate, black wall, tissue culture treated (from Corning, Cat.3904) and cultured following ATCC formulation. Cell viability after 72 hrs and 144 hrs was measured using Cell Titer Blue Viability Assay (from Promega, Cat. G8081, Lot. No. 0000190181) and fluorescence at 560/590 nm was recorded with Enspire (PerkinElmer). EC50 was calculated using XLfit software (5.5).

[4] = test system: cell lines originating from solid tumors; test: ChemPartner cell line screen, CellTiter Blue; assay type: cell-based; conditions: 72 h; 3 days of treatment; 10 μM is the highest dose tested; read-out: median IC50
Experimental: as §1

[5] = Toxicology in DOHH2 xenograft mice; conditions: for Reticulocyte % / Absolute Basophil cells / Absolute Eosinophil cells / Absolute Monocyte cells / Absolute Neutrophil cells / Absolute Lymphocyte cells / WBC / MPV / RBC / Hemoglobin / RDW % / MCH / MCHC / Hematocrit % / MCV / Platelets / Aspartate Transaminase / Bilirubin / Creatine PhosphoKinase / Creatinine: DOHH2 xenograft; for Absolute Basophil cells / Absolute Eosinophil cells: normal [0-0.2]; for Absolute Monocyte cells: normal [0-0.4]; for Absolute Neutrophil cells: normal [0.1-2.4]; for Absolute Lymphocyte cells: normal [0.9-9.3]; for WBC: normal [1.8-10.7]; for MPV: normal [5-20]; for RBC: normal [6.36-9.42]; for Hemoglobin: normal [11-15.1]; for RDW %: normal [12.4-27]; for MCH: normal [14.1-19.3]; for MCHC: normal [30.2-34.2]; for Hematocrit %: normal [35.1-45.4]; for MCV: normal [45.4-60.3]; for Platelets: normal [592-2972]; for Aspartate Transaminase / Bilirubin / Creatine PhosphoKinase / Creatinine: mean ± SEM, n = 3
Experimental: Mice were observed daily for clinical signs of toxicity and effects on body weight. After the last dose, three mice/group were euthanized and necropsied. At euthanasia, blood samples were taken for hematology analyses and to measure AST and CK activities and bilirubin and creatinine concentrations. At necropsy, samples of samples of femur, both kidneys, liver, small intestine, and injection site were taken and fixed.
The dose volume was 10 mL/kg. At the end of the two-to three-week dosing period, mice were euthanized and three/group were necropsied. Mice that died or were euthanized early for humane reasons also were necropsied. In life, mice were monitored regularly and weighed daily, and tumors were measured with digital Vernier calipers (Mitutoyo) every other day. Tumor volume was calculated as length (mm)×width (mm)2/2; length and width were the longest and shortest diameters, respectively. At euthanasia, at the end of the dosing period blood samples were taken for hematology analyses and clinical chemistry analyses that included AST and CK activities and bilirubin and creatinine concentrations (plus ALT activity and BUN concentration in the Jackson Laboratory study). At necropsy, samples of femur, both kidneys, liver, small intestine, and injection site were collected and fixed. These were subsequently processed and examined by light microscopy for histopathologic findings. Also at necropsy, the tumors were removed and divided in two. One piece was fixed in 10% neutral buffered formalin for 24 h at room temperature and embedded in paraffin; the other was snap frozen for RNA and protein analysis. Tumor growth inhibition (TGI) for all xenograft experiments was calculated following the formula:

[6] = rats; cited from earlier work
[7] = test system: BL2 cells; test: Click chemistry, total protein myristoylation; assay type: cell-based; conditions: 1 hr treatment
Experimental: Protein from the resulting cell lysates were reacted with 100 μM azido-biotin using click chemistry and processed as described in Yap et al.^47 and Perinpanayagam et al.^33

[8] = c2, head missing (per Table 4: PCLX-001 10 mg/kg/day)
[9] = c3, head missing (per Table 4: PCLX-001 20 mg/kg/day)
[10] = c4, head missing (per Table 4: PCLX-001 50 mg/kg/day Interm.)
[11] = c5, head missing (per Table 4: PCLX-001 50 mg/kg/day)

With `Cc1c(N[S+](=O)([O-])c2c(Cl)cc(-c3ccnc(N4CCNCC4)c3)cc2Cl)c(CC(C)C)nn1C` [PCLX-001] the “decrease in PBMC survival” value ([1]; 0.1 μM) was roughly 50%, the “concentration endured by the surviving PBMCs” value [1] was no more than 10 µM and the “mean tumor growth inhibition (TGI)” value ([2]; 50 mg/kg daily with 5-day interruption, by day 16) was 95%. For the same compound, the “reduction of tumor size” value ([2]; 50 mg/kg daily, by day 7) was “up to 70%”, the average tumor size ([2]; 50 mg/kg daily, day 7) was 44.0±8.1 mm^3 and the IC50 [3] was 166 nM. The IC50 [4] was no less than 10000 nM, the “neutrophil and monocyte counts” value ([5]; 50 mg/kg daily) was “lower than normal in all three mice” and the RBC counts ([5]; 50 mg/kg every other day) was “lower than normal in all three mice”. The “femoral bone marrow histopathology” value ([5]; 50 mg/kg groups) was “no histopathologic findings”, the Reticulocyte % ([5]; PCLX-001 10 mg/kg/day) was 8.08 ± 1.58% and the “Absolute Basophil cells” value ([5]; PCLX-001 10 mg/kg/day) was 0.01 ± 0 K/ul. For the same compound, the “Absolute Eosinophil cells” value ([5]; PCLX-001 10 mg/kg/day) was 0.05 ± 0.02 K/ul, the “Absolute Monocyte cells” value ([5]; PCLX-001 10 mg/kg/day) was 0.52 ± 0.06 K/ul and the “Absolute Neutrophil cells” value ([5]; PCLX-001 10 mg/kg/day) was 4.89 ± 0.34 K/ul. The “Absolute Lymphocyte cells” value ([5]; PCLX-001 10 mg/kg/day) was 0.83 ± ? .19 K/ul, the WBC ([5]; PCLX-001 10 mg/kg/day) was 6.3 ± 0.12 K/ul and the MPV ([5]; PCLX-001 10 mg/kg/day) was 6.77 ± 0.18 fL. The RBC ([5]; PCLX-001 10 mg/kg/day) was 9.45 ± 0.1 M/ul, the Hemoglobin ([5]; PCLX-001 10 mg/kg/day) was 14.13 ± 0.18 g/dL and the RDW % ([5]; PCLX-001 10 mg/kg/day) was 25.97 ± 0.46%. It also gave an MCH ([5]; PCLX-001 10 mg/kg/day) of 14.93 ± 0.03 pg, an MCHC ([5]; PCLX-001 10 mg/kg/day) of 32.73 ± 0.07 g/dL and a Hematocrit % ([5]; PCLX-001 10 mg/kg/day) of 43.2 ± 0.61%. The MCV ([5]; PCLX-001 10 mg/kg/day) was 45.7 ± 0.2 fL, the Platelets ([5]; PCLX-001 10 mg/kg/day) was 1490 ± 91.31 K/uL and the Reticulocyte % ([5]; PCLX-001 20 mg/kg/day) was 7.21 ± 0.49%. For the same compound, the “Absolute Basophil cells” value ([5]; PCLX-001 20 mg/kg/day) was 0.01 ± 0 K/ul, the “Absolute Eosinophil cells” value ([5]; PCLX-001 20 mg/kg/day) was 0.02 ± 0.01 K/ul and the “Absolute Neutrophil cells” value ([5]; PCLX-001 20 mg/kg/day) was 3.94 ± 0.94 K/ul. The “Absolute Lymphocyte cells” value ([5]; PCLX-001 20 mg/kg/day) was 0.84 ± ? .15 K/ul, the WBC ([5]; PCLX-001 20 mg/kg/day) was 5.41 ± 1.05 K/ul and the MPV ([5]; PCLX-001 20 mg/kg/day) was 7.63 ± 0.23 fL. The RBC ([5]; PCLX-001 20 mg/kg/day) was 9.03 ± 0.32 M/ul, the Hemoglobin ([5]; PCLX-001 20 mg/kg/day) was 13.97 ± 0.44 g/dL and the RDW % ([5]; PCLX-001 20 mg/kg/day) was 25.13 ± 0.65%. For the same compound, the MCH ([5]; PCLX-001 20 mg/kg/day) was 15.43 ± 0.3 pg, the MCHC ([5]; PCLX-001 20 mg/kg/day) was 33.03 ± 0.22 g/dL and the Hematocrit % ([5]; PCLX-001 20 mg/kg/day) was 42.33 ± 1.48%. It also gave an MCV ([5]; PCLX-001 20 mg/kg/day) of 46.9 ± 0.65 fL, a Platelets ([5]; PCLX-001 20 mg/kg/day) of 1234.7 ± 38.49 K/uL and a Reticulocyte % ([5]; PCLX-001 50 mg/kg/day) of 6.7 ± 0.3%. For the same compound, the Reticulocyte % ([5]; PCLX-001 50 mg/kg/day Interm.) was 13.28 ± 6.74%, the “Absolute Basophil cells” value ([5]; PCLX-001 50 mg/kg/day Interm.) was 0 ± 0 K/ul and the “Absolute Eosinophil cells” value ([5]; PCLX-001 50 mg/kg/day Interm.) was 0.05 ± 0.03 K/ul. For the same compound, the “Absolute Monocyte cells” value ([5]; PCLX-001 50 mg/kg/day Interm.) was 0.91 ± 0.14 K/ul, the “Absolute Lymphocyte cells” value ([5]; PCLX-001 50 mg/kg/day Interm.) was 1.51 ± 0.47 K/ul and the WBC ([5]; PCLX-001 50 mg/kg/day Interm.) was 5.94 ± 1.19 K/ul. For the same compound, the MPV ([5]; PCLX-001 50 mg/kg/day Interm.) was 7.17 ± 0.09 fL, the RBC ([5]; PCLX-001 50 mg/kg/day Interm.) was 8.07 ± 0.12 M/ul and the Hemoglobin ([5]; PCLX-001 50 mg/kg/day Interm.) was 12.6 ± 0.15 g/dL. It also gave an RDW % ([5]; PCLX-001 50 mg/kg/day Interm.) of 27.2 ± 1.82%, an MCH ([5]; PCLX-001 50 mg/kg/day Interm.) of 15.63 ± 0.12 pg and an MCHC ([5]; PCLX-001 50 mg/kg/day Interm.) of 31.90 ± 1.01 g/dL. The Hematocrit % ([5]; PCLX-001 50 mg/kg/day Interm.) was 39.53 ± 0.84%, the MCV ([5]; PCLX-001 50 mg/kg/day Interm.) was 49.07 ± 1.72 fL and the Platelets ([5]; PCLX-001 50 mg/kg/day Interm.) was 1673.7 ± 309.81 K/uL. For the same compound, the “Absolute Basophil cells” value ([5]; PCLX-001 50 mg/kg/day) was 0 ± 0 K/ul, the “Absolute Eosinophil cells” value ([5]; PCLX-001 50 mg/kg/day) was 0.01 ± 0.01 K/ul and the “Absolute Monocyte cells” value ([5]; PCLX-001 50 mg/kg/day) was 0.19 ± 0.06 K/ul. The “Absolute Neutrophil cells” value ([5]; PCLX-001 50 mg/kg/day) was 1.45 ± 0.22 K/ul, the “Absolute Lymphocyte cells” value ([5]; PCLX-001 50 mg/kg/day) was 0.23 ± 0.06 K/ul and the WBC ([5]; PCLX-001 50 mg/kg/day) was 1.89 ± 0.31 K/ul. It also gave an MPV ([5]; PCLX-001 50 mg/kg/day) of 7 ± 0.3 fL, an RBC ([5]; PCLX-001 50 mg/kg/day) of 9.3 ± 0.17 M/ul and a Hemoglobin ([5]; PCLX-001 50 mg/kg/day) of 14.77 ± 0.23 g/dL. It also gave an RDW % ([5]; PCLX-001 50 mg/kg/day) of 25.8 ± 0.3%, an MCH ([5]; PCLX-001 50 mg/kg/day) of 15.9 ± 0.1 pg and an MCHC ([5]; PCLX-001 50 mg/kg/day) of 34.1 ± 0.1 g/dL. It also gave a Hematocrit % ([5]; PCLX-001 50 mg/kg/day) of 43.3 ± 0.7%, an MCV ([5]; PCLX-001 50 mg/kg/day) of 46.6 ± 0.2 fL and a Platelets ([5]; PCLX-001 50 mg/kg/day) of 900.7 ± 60.8 K/uL. For the same compound, the “Aspartate Transaminase” value [5, 8] was 104.33 ± 27.34 U/L, the Bilirubin [5, 8] was 0.1 ± 0 mg/dL and the “Creatine PhosphoKinase” value [5, 8] was 81.7 ± 25.1 U/L. The Creatinine [5, 8] was 0.3 ± 0.067 mg/dL, the “Aspartate Transaminase” value [5, 9] was 132.67 ± 55.29 U/L and the Bilirubin [5, 9] was 0.1 ± 0 mg/dL. For the same compound, the “Creatine PhosphoKinase” value [5, 9] was 54 ± 14.7 U/L, the Creatinine [5, 9] was 0.3 ± 0 mg/dL and the “Aspartate Transaminase” value [5, 10] was 125.67 ± 68.18 U/L. For the same compound, the Bilirubin [5, 10] was 0.1 ± 0 mg/dL, the “Creatine PhosphoKinase” value [5, 10] was 92.3 ± 29.5 U/L and the Creatinine [5, 10] was 0.3 ± 0 mg/dL. The “Aspartate Transaminase” value [5, 11] was 279.7 ± 34.17 U/L, the Bilirubin [5, 11] was 0.1 ± 0 mg/dL and the “Creatine PhosphoKinase” value [5, 11] was 266.67 ± 69.9 U/L. The Creatinine [5, 11] was 0.2 ± 0 mg/dL, the “Noteworthy findings after last dose” value ([5]; Group 2, Low-dose, 10 mg/kg) was “None” and the “Noteworthy findings after last dose” value ([5]; Group 4, Mid-dose, 20 mg/kg) was “None”. For the same compound, the mortality ([5]; any dose) was “does not increase mortality”, the “toxicity at high dose levels” value [6] was “hematopoietic toxicity” and the “concentration required to decrease myristoylation” value [7] was roughly 0.1 µM.
